The values below come from patent publication US5219879A, “Heterocyclic steroid compounds” (Du Pont Merck Pharmaceutical Company, priority 1991, dated 1993).

The test system of the first test is 3-Hydroxy-3-Methylglutaryl Coenzyme A Reductase (HMGR). Nature of the test: 3-Hydroxy-3-Methylglutaryl Coenzyme A Reductase (HMGR) Suppression Assay. In kind it is cell-based, Chinese Hamster (CHO cells). To be noted: CHO cells, 6 hr. at 37°; read-out: IC50 (amount of compound required to suppress HMGR activity by 50% relative to controls).
Procedure: The ability of the compounds of Formula I to suppress the activity of HMGR, the rate limiting enzyme of cholesterol biosynthesis, was tested as follows.
Chinese Hamster Ovary (CHO) cells were divided twice weekly and were maintained in McCoy's 5A medium supplemented with 1% carbosil delipidated Fetal Bovine System (FBS) (obtained from Gibco Laboratories, Chagrin Falls, Ohio). Cells were harvested during the logarithmic phase of growth and cell cultures were prepared by adding […] cells to each well in a 24 well cluster dish (obtained from Costar, Data Packaging Corp., Cambridge, Mass.) employing 1 ml of the above medium per each well. […] Control cells were treated in an identical fashion to those which received test compound, except they were incubated with the BSA and ethanol suspension only.
Specifically, the medium in each well was aspirated and the cells rinsed with a 50 mM solution of phosphate buffered saline (PBS). One ml of 30 mg/ml of digitonin in CSK buffer (prepared using 10 mM Pipes [piperazine-N,N'-bis (2-ethansulfonic) acid], 100 mM KCl, 2.5 mM MgCl2, 300 mM sucrose, 1 mM EGTA, pH 6.8) was added to each well and incubated for 10 min. at 22° to permeabilize the cells. The buffer was carefully aspirated and the wells were rinsed twice each time with 1 ml of PBS. HMGR activity was measured directly by adding 75 ml of PIB buffer (50 mM potassium phosphate, 1 mM Na2 EDTA, 10 mM dithiothreitol, pH 7.4) to each well and incubating the cells for 30 minutes at 37° as described above. […] The assay mixture was incubated for 30 min. at 37° and terminated by the addition of 70 ml of [^3 H]-mevalonicacid (35,000 DPM/assay), 0.15 mg/ml in 3N HCl.
The reaction was left to lactonize for an additional 30 min. at 37° or overnight at room temperature.
Reaction products were separated by thin layer chromatography on silica gel G (obtained from Analtech, Newark, Del.) developed in an unsaturated environment with acetone:benzene (3:2, v:v). The band corresponding to mevalonolactone was identified by exposure to iodine vapor and was scraped into counting vials. The extent of conversion of starting substrate, HMG-CoA, to mevalonic acid was determined by liquid scintillation counting in Biofluor (obtained from New England Nuclear, Boston, Mass.). Corrections for recovery and blank values were made for each sample. Protein determinations were made by Bio-Rad (Bio-Rad, Richmond, Calif.) dye binding assay according to the manufacturer's instruction using bovine serum albumin as standard. Cellular protein was solubilized from culture dishes by the addition of 20 μl of 16N KOH and assayed directly for protein amount. Suppression values are expressed as the amount of compound required to suppress HMGR activity by 50% relative to that of the controls.
As to `CC(C)CCC[C@@H](C)[C@H]1CO[C@H]2C3=C(CC[C@]12C)[C@@]1(C)CC[C@H](O)C(C)(C)[C@@H]1CC3` [Example 2, 4,4-Dimethyl-15-oxa-5a-cholest-8-en-3b-ol], the half-inhibitory concentration (IC50) worked out at 300 nM. As to `C=C[C@@]12OC[C@H]([C@H](C)CCCC(C)C)[C@@]1(C)CCC1=C2CC[C@H]2C(C)(C)[C@@H](O)CC[C@]12C` [Example 3, 4,4-Dimethyl-15-oxa-14a-vinyl-5a-cholest-8-en-3b-ol], the IC50 came out at 170 nM.

For `CC(=O)O[C@H]1CC[C@]2(C)C3=C(CC[C@H]2C1(C)C)[C@]1(C=O)OC[C@H]([C@H](C)CCCC(C)C)[C@@]1(C)CC3` [Example 6, 3b-Acetoxy-15-oxa-32-oxolanost-8-ene], the IC50 is 75 nM. In the case of `CC(C)CCC[C@@H](C)[C@H]1CO[C@@]2(C=O)C3=C(CC[C@]12C)[C@@]1(C)CC[C@H](O)C(C)(C)[C@@H]1CC3` [Example 7, 15-Oxa 32-oxodihydrolanosterol], the IC50 came to 40 nM. As for `CC(C)CCC[C@@H](C)[C@H]1CO[C@@]2(CO)C3=C(CC[C@]12C)[C@@]1(C)CC[C@H](O)C(C)(C)[C@@H]1CC3` [Example 8, 15-Oxa-lanost-8-ene-3b,32-diol], the half-inhibitory concentration (IC50) stood at 2500 nM. Same read-out and setting: next, `CC(C)CCC[C@@H](C)[C@H]1CO[C@@]2(C=NO)C3=C(CC[C@]12C)[C@@]1(C)CC[C@H](O)C(C)(C)[C@@H]1CC3` [Example 10, 3b-Hydroxy-15-oxa-lanost-8-en-32-aldoxime]: 200 nM. On the same count and under the same terms, next, `CC(C)CCC[C@@H](C)[C@H]1CO[C@@]2(C)C3=C(CC[C@]12C)[C@@]1(C)CC[C@H](O)C[C@@H]1CC3` [Example 13, 14a-Methyl-15-oxa-5a-cholest-8-en-3b-ol]: 2500 nM. Consider `CC(C)CCC[C@@H](C)[C@H]1CO[C@@]2([C@H](O)CO)C3=C(CC[C@]12C)[C@@]1(C)CC[C@H](O)C[C@@H]1CC3` [Example 16], for which the IC50 was determined as 2500 nM. Still for that read-out and setting: with `CC(C)CCC[C@@H](C)[C@H]1CO[C@@]2([C@@H](O)CO)C3=C(CC[C@]12C)[C@@]1(C)CC[C@H](O)C[C@@H]1CC3` [Example 17] the figure was 1950 nM. Same read-out and setting: next, `CC(C)CCC[C@@H](C)[C@H]1CO[C@@]2(C=O)C3=C(CC[C@]12C)[C@@]1(C)CC[C@H](O)C[C@@H]1CC3` [Example 18]: 300 nM; `CC(C)CCC[C@@H](C)[C@H]1CO[C@@]2(CO)C3=C(CC[C@]12C)[C@@]1(C)CC[C@H](O)C[C@@H]1CC3` [Example 19]: 2080 nM; `CC(C)CCC[C@@H](C)[C@H]1CO[C@@]2(C=O)C3=C(CC[C@]12C)[C@@]1(C)CCC(=O)C(C)(C)[C@@H]1CC3` [Example 386]: 80 nM. For the compound `CC(C)CCC[C@@H](C)[C@H]1CCO[C@H]2C3=C(CC[C@]12C)[C@@]1(C)CC[C@H](O)C(C)(C)[C@@H]1CC3` [Example 673, 4,4-dimethyl-14a-Oxa-D-homo-5a-cholest-8-en-3b-ol], the IC50 stood at 1460 nM. In the case of `CC(C)CCC[C@@H](C)[C@H]1CCO[C@@]2(C=O)C3=C(CC[C@]12C)[C@@]1(C)CC[C@H](O)C(C)(C)[C@@H]1CC3` [Example 677, 14a-Oxa-32-oxo-D-homo-dihydrolanosterol], the IC50 was found to be 2500 nM. Consider `CC(C)CCC[C@@H](C)[C@H]1CS[C@@]2(C)C3=C(CC[C@]12C)[C@@]1(C)CC[C@H](O)C(C)(C)[C@@H]1CC3` [Example 857], for which the half-maximal inhibitory concentration (IC50) amounted to 60 nM. On the same count and under the same terms, with `CC(C)CCC[C@@H](C)[C@H]1CS[C@H]2C3=C(CC[C@]12C)[C@@]1(C)CC[C@H](O)C(C)(C)[C@@H]1CC3` [Example 858, 4,4-Dimethyl-15-thia-5a-cholest-8-en-3b-ol] the figure was 550 nM; with `C=C[C@@]12SC[C@H]([C@H](C)CCCC(C)C)[C@@]1(C)CCC1=C2CC[C@H]2C(C)(C)[C@@H](O)CC[C@]12C` [Example 859, 4,4-Dimethyl-15-thia-14a-vinyl-5a-cholest-8-en-3b-ol], 60 nM.

Consider `CC(C)CCC[C@@H](C)[C@H]1C[S+]([O-])[C@@]2(C)C3=C(CC[C@]12C)[C@@]1(C)CC[C@H](O)C(C)(C)[C@@H]1CC3` (some centres unmarked) [Example 1303], for which the 50% inhibitory concentration (IC50) is 300 nM. The same measure, in the same setting: with `CC(C)CCC[C@@H](C)[C@H]1CCS[C@@]2(C)C3=C(CC[C@]12C)[C@@]1(C)CC[C@H](O)C(C)(C)[C@@H]1CC3` [Example 1508] the figure was 1250 nM. `CC(C)CCC[C@@H](C)[C@H]1CCS[C@H]2C3=C(CC[C@]12C)[C@@]1(C)CC[C@H](O)C(C)(C)[C@@H]1CC3` [Example 1509, 4,4-Dimethyl-15-thia-D-homo-5a-cholest-8-en-3b-ol]: the IC50 worked out at 5000 nM.

The test is the same for the next values; noted with them: CHO cells, tested under these same conditions.
For `CC(C)CCC[C@@H](C)[C@H]1CC[C@H]2[C@@H]3CC=C4C[C@@H](O)CC[C@]4(C)[C@H]3CC[C@]12C` [cholesterol, reference compound], the “effect on measured HMGR activity” value was “without effect”. Same read-out and setting: next, `CC(C)CCC[C@@H](C)[C@H]1CC[C@@]2(C)C3=C(CC[C@]12C)[C@@]1(C)CC[C@H](O)C(C)(C)[C@@H]1CC3` [lanost-8-en-3b-ol, reference compound]: “without effect”. Turning to `CC(C)=CCC[C@@H](C)[C@H]1CC[C@@]2(C)C3=C(CC[C@]12C)[C@@]1(C)CC[C@H](O)C(C)(C)[C@@H]1CC3` [lanosta-8,24-diene-3b-ol, reference compound], the “effect on measured HMGR activity” value is reported as “without effect”.

As usually defined, the IC50 is the point on the concentration scale where inhibition reaches its midpoint.
